In general, pEC50 refers to −log10 of the EC50, conventionally taken in molar units. As usually defined, the melting point is the temperature of the solid-liquid transition. A word on the pIC50: it is the negative decadic logarithm of the IC50, by convention in mol/L. A high value points to a small IC50.

These results are taken from patent publication US11466011B2, “Compounds and their use as inhibitors of N-myristoyl transferase” (Imperial College Innovations Limited, priority 2015, dated 2022).

SMILES strings stand for the structures. pEC50, pIC50: −log10 of the molar value. Where a name gives a salt, the structure may show the parent alone.

The subject of series [1] is HRV16. The series is described as follows: Rhinovirus production assay 2 (f), virus-induced cytopathic effect. The series is classed as cell-based, human HeLa Ohio cell line. The settings on record: 2 days post-infection, HeLa Ohio cells. How it is done:
Examples 30, 35, 49 and 50 of the invention was tested for activity in a rhinovirus replication assay in the human HeLa Ohio cell line. Compounds having activity in inhibiting rhinovirus production in the assay are expected to be useful as agents for preventing and/or treating asthma or chronic obstructive pulmonary disease (COPD), by virtue of being inhibitors of human NMT1 and/or NMT2, which are thought to myristoylate rhinovirus capsid subunit VP4 and be essential for virus assembly. HeLa Ohio cells were grown in growth media (DMEM supplemented with 10% FBS, 1% Sodium Bicarbonate and 25 mM Hepes) and seeded 24 hours prior to infection in a 96-well plate at a cell density allowing to obtain 100% confluent cells (5.6×10^4 cells per well) the next day. Confluent cells were infected with HRV16 at an MOI of 0.05 in the presence of different concentrations of inhibitor, as indicated in the table below, each in duplicate. The virus stock (5.6×10^6 PFU/ml) was diluted in growth media to obtain a virus solution at 1.4×10^4 PFU/ml. This virus dilution was used to dilute the inhibitor by serial dilutions in order to obtain virus solutions with the inhibitor concentrations indicated in the table below. The DMSO control contained the same percentage of DMSO as in the solution with the highest concentration of inhibitor.
(In general: Damage to the host cells serves as the signal in cytopathic effect assays.)

For series [2], the system named is HRV16. Kind of series: Rhinovirus production assay (e), virus titre (TCID50). As to conditions: Enterovirus. It is filed as cell-based, human HeLa Ohio cell line. As for the experimental part: Example 30 of the invention was tested for activity in an in vitro rhinovirus production assay using the human HeLa Ohio cell line. Compounds having activity in inhibiting rhinovirus production in the assay are expected to be useful as agents for preventing and/or treating asthma or chronic obstructive pulmonary disease (COPD), by virtue of being inhibitors of human NMT1 and/or NMT2, which are thought to myristoylate rhinovirus capsid subunit VP4 and be essential for virus assembly. Hela Ohio cells were grown in growth media (DMEM supplemented with 10% FBS, 1% Sodium Bicarbonate and 25 mM Hepes) and seeded 24 h prior to infection in a 12-well plate at a cell density allowing to obtain 100% confluent cells (5.95×10^5 cells per well) the next day. Confluent cells were treated with different concentrations of inhibitor, as indicated in the table below, each in triplicate. The Example 30 inhibitor solution was prepared by serial dilutions in growth media and the DMSO control contained the same percentage of DMSO as in the solution with the highest concentration of inhibitor. […] Cells were then infected with HRV16 at an MOI of 1 in the presence of the inhibitor. The virus stock (2.492×10^7 PFU/ml) was diluted in growth media to obtain a virus solution at 5.95×10^5 PFU/ml. This virus dilution was used to dilute the inhibitor as previously described in order to obtain virus solutions with the inhibitor concentrations indicated in the table below. The cell media was as replaced by 1 ml per well of virus+inhibitor solution and the plate was incubated for 1 h at room temperature to allow virus adsorption onto the cells. The cells were then washed with PBS and the media was replaced with 1 ml per well of growth media+inhibitor, prepared as previously described. […] The media and cells form each well were then transferred to 1.5 ml tubes and centrifuged for 1 min at 16000×g to remove cell debris. The virus titres from the cleared supernatants were determined by measuring the 50% Tissue Culture Infective Dose (TCID50). Each sample was diluted in a series of 10-fold dilutions in TCID50 media (DMEM supplemented with 2% FBS, 1% Sodium Bicarbonate, 25 mM Hepes and 1% Penicillin-Streptomycin) and 50 μl of each of the dilutions 1/10 to 1/10^−8 were added onto a 96-well plate, in 6 replicates. HeLa Ohio cells at a cell density of 1×10^5 cells/ml in TCID50 media were then added to each well (150 μl per well). Some wells with cells alone (without sample) were included as control. […] The appearance of characteristic cytopathic effect, compared to control cells, was then assessed by observation of the plates on an inverted microscope and the virus titres were subsequently calculated by the method of Reed and Muench.

The test system of series [3] is HeLa Ohio cells. Kind of series: Cell viability of inhibitor-treated uninfected cells (assay (f)). As to conditions: MTS 2 days post-treatment.
For series [4], the system named is HeLa and/or BL-41 cells. The series is described as follows: Metabolic activity assay (MTS assay) (d), HeLa and/or BL-41. It is filed as cell-based. The settings on record: Homo sapiens, 72 h. How it is done: Example NMT inhibitors of the invention were tested for activity in an in vitro metabolic activity assay using human cell lines (HeLa and BL-41). Compounds having activity in inhibiting metabolic activity in the assay are expected to be useful as agents for preventing and/or treating cancer, by virtue of being inhibitors of human NMT1 and/or NMT2.
Hela cells were grown in DMEM media (supplemented with 10% FBS) and seeded in a 96-well plate 24 h prior to treatment. BL-41 cells were grown in RPMI-1640 media (supplemented with 10% FBS) and seeded directly before treatment. Cell suspensions were prepared by adjusting the cell density to the appropriate concentration (as stated in the table below) and 50 μL of the cell suspension was transferred to wells B-G in columns 2-11 of a 96-well plate.
100 μL of growth media containing 0.2% DMSO was added to wells B-G in columns 2 and 11 as positive controls and 100 μL of growth media containing Puromycin (3 μg/mL; final concentration in the plate 2 μg/mL) was added to wells B-G in column 3 as a negative control. 7 concentrations of inhibitor solution were prepared using example NMT inhibitors (same final percentage of DMSO, dilution factor=3 starting from 15 μM or 150 μM) and 100 μL of inhibitor solution was added to wells B-G in columns 4-10 (final concentration of example NMT inhibitor in the plate starting from 10 μM or 100 μM; total volume of the wells=150 μL).
After 72 h, 20 μL MTS reagent (Promega, prepared according to the supplier protocol) was added to each well of the 96-well plate. The plate was incubated at 37° C. (2 hours for HeLa cells and 4 hours for BL-41 cells) and absorbance was measured at 490 nm with a Spectra Max M2/M2e microplate reader. The average absorbance value of the negative control (Puromycin-treated cells) was subtracted from each value and the metabolic activity was calculated as a percentage relative to the positive control (DMSO-treated cells). EC50s were calculated using Grafit 7.0 (Erithacus Software Ltd, UK).
For orientation: Tetrazolium assays rely on reduction of a dye to a coloured formazan, in cell work by metabolically active cells.

Series [5] has as its target T1, Leishmania major (Lm) N-myristoyl transferase (Leishmania major, UniProt Q4Q5S8).
T1 sequence (Q4Q5S8 1-421): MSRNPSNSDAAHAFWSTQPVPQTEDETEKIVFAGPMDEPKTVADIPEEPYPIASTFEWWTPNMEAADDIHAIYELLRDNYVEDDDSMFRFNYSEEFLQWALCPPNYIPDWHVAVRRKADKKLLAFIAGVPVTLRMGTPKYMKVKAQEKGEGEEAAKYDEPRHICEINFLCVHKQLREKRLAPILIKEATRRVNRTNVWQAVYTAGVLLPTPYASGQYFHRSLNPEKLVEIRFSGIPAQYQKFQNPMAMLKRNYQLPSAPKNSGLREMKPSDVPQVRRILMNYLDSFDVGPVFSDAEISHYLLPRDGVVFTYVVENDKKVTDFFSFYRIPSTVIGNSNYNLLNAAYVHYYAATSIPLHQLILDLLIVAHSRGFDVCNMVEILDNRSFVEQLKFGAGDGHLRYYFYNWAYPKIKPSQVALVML
Kind of series: Fluorescence-based NMT assay (a), adapted version, LmNMT. The series is classed as biochemical.

The target of series [6] is Leishmania donovani (Ld) N-myristoyl transferase (Leishmania donovani, UniProt D0AB09). The series is described as follows: Fluorescence-based NMT assay (a), adapted version, LdNMT. The series is classed as biochemical.
Chain of Leishmania donovani (Ld) N-myristoyl transferase (D0AB09 entry or part of it): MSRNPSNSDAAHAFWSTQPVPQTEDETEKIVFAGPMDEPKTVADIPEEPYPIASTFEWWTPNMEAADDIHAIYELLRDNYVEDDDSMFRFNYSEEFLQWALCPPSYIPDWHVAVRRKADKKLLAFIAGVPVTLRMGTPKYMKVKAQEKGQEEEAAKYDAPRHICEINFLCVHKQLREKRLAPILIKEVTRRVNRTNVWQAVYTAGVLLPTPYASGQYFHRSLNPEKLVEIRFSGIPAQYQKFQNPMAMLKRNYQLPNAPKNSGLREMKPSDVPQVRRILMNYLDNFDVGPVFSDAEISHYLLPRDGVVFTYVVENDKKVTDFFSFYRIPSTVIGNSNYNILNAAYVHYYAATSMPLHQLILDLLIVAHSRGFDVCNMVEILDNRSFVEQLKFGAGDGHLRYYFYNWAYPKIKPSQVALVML

Take `Cc1nn(C)c(C)c1CCOc1c(-c2ccc3c(c2)c(CN(C)C)nn3C)ccc(F)c1F` [Example 49]: in series [1], the “HRV16 production (virus-induced cytopathic effect, MTS)” value (“HRV16 production” for short) is “inhibit HRV16 production in a dose-dependent manner”. For the same compound, the pEC50 was 7.00 to 8.00 in series [2] and 7.00 to 9.00 in series [4]. Further, the “cell viability of inhibitor-treated but uninfected cells” value in series [3] is “without affecting cell viability”.
The compound `Cc1nn(C)c(C)c1CCOc1cc(F)ccc1-c1ccc2c(c1)c(CN)nn2C` (as salt: salt) [Example 31, (5-(4-fluoro-2-(2-(1,3,5-trimethyl-1H-pyrazol-4-yl)ethoxy)phenyl)-1-methyl-1H-indazol-3-yl)methanamine] returned a melting point of 230 to 233 °C.
Take `CN(C)Cc1n[nH]c2ccc(-c3ccc(F)cc3OCCc3cccnc3)cc12` [Example 8]: the pIC50 in series [5] and in series [6] was 7.00 to 9.00 throughout.
Take `Cc1nn(C)c(C)c1CCOc1c(F)cccc1-c1ccc2c(c1)c(CN(C)C)nn2C` [Example 30]: the “HRV16 production” value in series [1] is on record as “inhibit HRV16 production in a dose-dependent manner”. For the same compound, the results for the pEC50 in series [2] and in series [4] were 7.00 to 8.00 and 7.00 to 9.00, respectively. In series [3], the “cell viability of inhibitor-treated but uninfected cells” value was “without affecting cell viability”.
Turning to `CNCc1nn(C)c2ccc(-c3ccc(F)c(F)c3OCCc3c(C)nn(C)c3C)cc12` [Example 50, 1-(5-(3,4-difluoro-2-(2-(1,3,5-trimethyl-1H-pyrazol-4-yl)ethoxy)phenyl)-1-methyl-1H-indazol-3-yl)-N-methylmethanamine], the “HRV16 production” value in series [1] is given as “inhibit HRV16 production in a dose-dependent manner”. For the same compound, the pEC50 in series [2] was 7.00 to 8.00; in series [4], 7.00 to 9.00. For the same compound, the “cell viability of inhibitor-treated but uninfected cells” value in series [3] is “without affecting cell viability”.
As to `Cc1nn(C)c(C)c1CCOc1cc(F)ccc1-c1ccc2[nH]nc(CN(C)C)c2c1` [Example 7], the pIC50 in series [6] was 7.00 to 9.00.
Regarding `CNCc1nn(C)c2ccc(-c3cccc(F)c3OCCc3c(C)nn(C)c3C)cc12` [Example 35, 1-(5-(3-fluoro-2-(2-(1,3,5-trimethyl-1H-pyrazol-4-yl)ethoxy)phenyl)-1-methyl-1H-indazol-3-yl)-N-methylmethanamine], the “HRV16 production” value in series [1] was “inhibit HRV16 production in a dose-dependent manner”. The negative-log EC50 (pEC50) in series [2] was 7.00 to 8.00. In addition, the “cell viability of inhibitor-treated but uninfected cells” value in series [3] was “without affecting cell viability”.
